Several values for one entry are separate records, joined by “and”; a condition that tells them apart may be missing. Equal values may be shown once.
Columns and labels:
[1] = tested on: L. lactis ClfB; assay: Adhesion of L. lactis ClfB to immobilized fibrinogen; type: cell-based, Lactococcus lactis
Procedure: FIG 1 Allantodapsone inhibits S. aureus Newman adhesion to fibrinogen. Dose response curves for S. aureus Newman (A), L. lactis ClfA (B), and L. lactis ClfB (C) adhesion to fibrinogen. Fibrinogen was used to coat plates at 4°C overnight at 10 μg/mL. Wells were washed with PBS and blocked with 1% BSA. Washed bacteria (OD600 of 1) were mixed with the relevant concentration of allantodapsone or vehicle control (DMSO) for 5 min, and added to the wells, incubating for 2 h at 37°C. Adherent cells were washed, fixed, and stained with crystal violet, and wells further washed. The dye was dissolved in acetic acid and the absorbance measured at 570 nm. IC50 values were generated using GraphPad Prism 9.0 GraphPad software, San Diego, CA. Data are representative of three experiments with error presented as SEM.
Adhesion assays were carried out according to Hartford et al. ([37]). Briefly, plates were coated with 10 μg/mL fibrinogen (Calbiochem, Darmstadt, Germany) or 20 μg/mL fibronectin (Sigma-Aldrich, Ireland) for 2 h at 37°C or for 16 h at 4°C. Plates were blocked with 1% BSA at 37°C for 1 h and washed 3 times in PBS. Washed bacteria were incubated at 37°C for 2 h. […] Plates were read at 570 nm on a Wallac Victor2, (Shelton, CT, USA). The minimum adhesion inhibitory concentration (MAIC) was determined as the concentration inhibiting greater than 90% bacterial adhesion. […]

[2] = tested on: S. aureus Newman; assay: Agglutination (fibrinogen clumping) assay; type: cell-based, Staphylococcus aureus; conditions: 100 μM allantodapsone; 5 mg/mL fibrinogen; stationary phase
Procedure: (§1) V. Microbiology: Materials and Methods
(§2) The MTT toxicity assay (1) (Vybrant MTT Cell Proliferation Assay, Molecular Probes, Or, USA) was used to measure cytotoxicity. Myeloid lineage, U-937 cells (2) were grown in RPMI-1640 (Gibco) culture medium supplemented with 10% foetal calf serum, 1% L-glutamine and 1% Penicillin/Streptomycin (Gibco). U-937 cells were centrifuged and cells diluted with fresh medium containing 1.2 mM MTT solution to a concentration of (5-6 x 10^6 per mL) and incubated at 37 °C for 2 h. Cells were centrifuged and the pellet dissolved in DMSO. The absorbance was read at 490 nm using the Wallac Victor2, (Shelton, Connecticut, USA).
(§3) Platelet aggregation was performed in platelet rich plasma according to O’Brien et al.
(§4) S. aureus Newman (stationary phase) was washed and diluted to an OD600 of 2.5.
(§5) This was mixed with 10 mg/mL of fibrinogen in 1:1 ratio resulting in a final concentration 5 mg/mL fibrinogen. Fibrinogen -bacteria aggregates clump and settle at the bottom of the tube resulting in a clear solution. These were compared to the turbid bacterial suspension in buffer by visual inspection. […]
of S. aureus Newman was used as an agonist to stimulate platelet aggregation. The FcγRIIa antibody IV.3 (StemCell Technologies, London, UK) was used at a concentration of […]. […] Data was analysed by repeated measures ANOVA followed by a multiple comparison Dunnett’s test. […]

[3] = tested on: S. aureus Newman; assay: Adhesion of S. aureus Newman to cytokeratin 10 (CK10); type: cell-based, Staphylococcus aureus; conditions: CK10 10 nM
Procedure: FIG 4 Allantodapsone inhibits S. aureus adhesion to loricrin and cytokeratin 10. Dose-response curve for adhesion of S. aureus Newman to GST-L2v loricrin (A) and CK10 (C). (B) Inhibition of recombinant ClfB N2N3 binding to immobilized GST-L2v loricrin by allantodapsone. (D) Inhibition of S. aureus Newman adhesion to GST-L2v loricrin by allantodapsone derivatives. Purified GST-L2v or CK10 were used to coat plates at 4°C overnight. Wells were washed with PBS and blocked with 1% BSA. Washed bacteria (OD600 of 1) were mixed with allantodapsone or vehicle control before being added to the wells and incubated for 2 h at 37°C. Adherent cells were washed, fixed, and stained with crystal violet, and wells further washed. The dye was dissolved in acetic acid, and the absorbance measured at 570 nm. GST-L2v was used at 20 μM in A and D. CK10 was used at 10 nM. […] Bound ClfB was detected using peroxidase-conjugated anti-His monoclonal antibody in an ELISA. […]
Adhesion assays were carried out according to Hartford et al. ([37]). […] Plates were read at 570 nm on a Wallac Victor2, (Shelton, CT, USA). The minimum adhesion inhibitory concentration (MAIC) was determined as the concentration inhibiting greater than 90% bacterial adhesion.

[4] = tested on: platelet aggregation induced by S. aureus Newman; assay: Platelet aggregation induced by S. aureus Newman in platelet rich plasma; type: cell-based, human; conditions: 100 μM allantodapsone, 5 minutes prior to aggregation
Procedure: as §1, §2, §3, §4, §5
of S. aureus Newman was used as an agonist to stimulate platelet aggregation. […] Data was analysed by repeated measures ANOVA followed by a multiple comparison Dunnett’s test. […]

## Nc1ccc(S(=O)(=O)c2ccc(NCN3C(=O)NC(=O)C(=O)C3=O)cc2)cc1 [Allantodapsone]
[1]; L. lactis ClfB, fibrinogen
  minimum adhesion inhibitory concentration (MAIC): 33 μM and 13.3 μg/mL
[1]; Lactococcus lactis, read-out: IC50, inhibition of adhesion to fibrinogen
  IC50: 11 µM
[2]
  inhibition of clumping of bacteria in fibrinogen: did not inhibit
[3]
  inhibition of adhesion to CK10: dose dependent inhibition
[4]
  inhibition of S. aureus Newman induced platelet aggregation: did not inhibit
